Data from patent publication US10342797B2, “Solubility of therapeutic agents” (LivePet LLC, priority 2016, dated 2019).
≈ marks a conversion by molar mass, not a printed value.

Columns and labels:
[1] = Solubility in lipofullerene base, confirmed by a turbidometer
Description: Each of the above mixtures were sonicated for 30 seconds followed by vortexing for 12 hours in the dark.

[2] = Water solubility; assay type: physicochemical; settings: read-out: Water solublity
[3] = tested on: AsPC-1 cells; test: Xenograft studies; assay type: in vivo, nude mice; settings: oral gavage, 1 mg of triptolide/1 mL of C60-olive oil base, ~28 days
Description: AsPC-1 cells were purchased from American Type Culture Collection (ATCC). Cells were harvested from sub-confluent cultures after brief exposure to 0.25% trypsin and 0.2% EDTA. The cells were washed once in serum-free medium and re-suspended thereafter in PBS. Only suspensions consisting of single cells with >90% viability were used for the injections. Mice were injected with 1.5×10^6 cells sub-cutaneously (S.C) on the right side of hind leg of each mouse using a 23-gauge needle. After tumor transplant, the mice were observed daily for one week, before randomly assigning them to the treatment groups (n=5). The animals thereafter received triptolide (1 mg of triptolide/1 mL of C60-olive oil base) by oral gavage starting on day 15 or on tumor volume reaching ˜40-70 mm^3. The treatment was continued until ˜28 days from first dose. […] Tumor size was measured once a week. At the end of the experimental period, the animals were euthanized.

| SMILES | Fold solubility ([1]; 12 h) | solubility [2] | also measured |
| --- | --- | --- | --- |
| CC(=O)O[C@@]12CO[C@@H]1C[C@H](O)[C@@]1(C)C(=O)[C@H](O)C3=C(C)[C@@H](OC(=O)[C@H](O)[C@@H](NC(=O)OC(C)(C)C)c4ccccc4)C[C@@](O)([C@@H](OC(=O)c4ccccc4)[C@H]21)C3(C)C [docetaxel] | >100 | – | – |
| CC[C@@]1(O)C(=O)OCc2c1cc1n(c2=O)Cc2cc3ccccc3nc2-1 [camptothecin] | – | 107 µg/mL (≈ 307 µM) | Fold solubility ([1]; lipofullerene base compared to solubility in water): 5 |
| CC(C)[C@]12O[C@H]1[C@@H]1O[C@]13[C@]1(O[C@H]1C[C@H]1C4=C(CC[C@@]13C)C(=O)OC4)[C@@H]2O [triptolide] | – | – | tumor size ([3]; 50 μg/kg): tumor regression was observed; tumor size ([3]; 100 μg/kg): tumor regression was observed; tumor size ([3]; 250 μg/kg): tumor regression was observed; amount of triptolide dissolved in lipofullerene base ([1]; lipofullerene base of Example 1, nitrogen gas atmosphere, stirred for 2 hours): About 2 gm/1000 mL |
| CC(=O)O[C@H]1C(=O)[C@@]2(C)[C@H]([C@H](OC(=O)c3ccccc3)[C@]3(O)C[C@H](OC(=O)[C@H](O)[C@@H](NC(=O)c4ccccc4)c4ccccc4)C(C)=C1C3(C)C)[C@]1(OC(C)=O)CO[C@@H]1C[C@@H]2O [paclitaxel] | 90 | 5.56 µg/mL (≈ 6.51 µM) | – |
| C#Cc1cccc(Nc2ncnc3cc(OCCOC)c(OCCOC)cc23)c1 [erlotinib] | 3 | 400 µg/mL (≈ 1020 µM) | – |
| CC[C@]1(O)C[C@H]2CN(CCc3c([nH]c4ccccc34)[C@@](C(=O)OC)(c3cc4c(cc3OC)N(C=O)[C@H]3[C@@](O)(C(=O)OC)[C@H](OC(C)=O)[C@]5(CC)C=CCN6CC[C@]43[C@@H]65)C2)C1 [vincristine] | 17 | 30 µg/mL (≈ 36.4 µM) | – |
